# In ChEMBL document CHEMBL4020788, “Synthesis, SAR and molecular docking studies of benzo[d]thiazole-hydrazones as potential antibacterial and antifungal agents” (2017):
# What was measured:
# Type in all cases: functional
# Fusarium verticillioides [1] = assay: Antifungal activity against Fusarium moniliforme at 75 ug/ml after 48 hrs by agar well diffusion method; conditions: read-out: DIZ
# Staphylococcus aureus [2] = assay: Antibacterial activity against methicillin resistant Staphylococcus aureus MRSA090 incubated for overnight by microdilution method
# Aspergillus niger [3] = assay: Antifungal activity against Aspergillus niger after 48 to 72 hrs by microdilution method
# Staphylococcus aureus [4] = assay: Antibacterial activity against methicillin resistant Staphylococcus aureus MRSA090 at 75 ug/ml after 24 hrs by agar well diffusion method; conditions: MRSA090, 24 h, read-out: DIZ
# Fusarium oxysporum [5] = assay: Antifungal activity against Fusarium oxysporum after 48 to 72 hrs by microdilution method
# Klebsiella pneumoniae [6] = assay: Antibacterial activity against Klebsiella pneumoniae at 25 ug/ml after 24 hrs by agar well diffusion method; conditions: read-out: DIZ
# Escherichia coli [7] = assay: Antibacterial activity against Escherichia coli at 50 ug/ml after 24 hrs by agar well diffusion method; conditions: read-out: DIZ
# Aspergillus niger [8] = assay: Antifungal activity against Aspergillus niger at 50 ug/ml after 48 hrs by agar well diffusion method; conditions: read-out: DIZ
# Aspergillus niger [9] = assay: Antifungal activity against Aspergillus niger at 100 ug/ml after 48 hrs by agar well diffusion method; conditions: read-out: DIZ
# Staphylococcus aureus [10] = assay: Antibacterial activity against Staphylococcus aureus at 25 ug/ml after 24 hrs by agar well diffusion method; conditions: read-out: DIZ
# Bacillus subtilis [11] = assay: Antibacterial activity against Bacillus subtilis incubated for overnight by microdilution method
# Bacillus subtilis [12] = assay: Antibacterial activity against Bacillus subtilis at 25 ug/ml after 24 hrs by agar well diffusion method; conditions: read-out: DIZ
# Fusarium oxysporum [13] = assay: Antifungal activity against Fusarium oxysporum at 25 ug/ml after 48 hrs by agar well diffusion method; conditions: read-out: DIZ
# Fusarium oxysporum [14] = assay: Antifungal activity against Fusarium oxysporum at 100 ug/ml after 48 hrs by agar well diffusion method; conditions: read-out: DIZ
# Fusarium verticillioides [15] = assay: Antifungal activity against Fusarium moniliforme at 25 ug/ml after 48 hrs by agar well diffusion method; conditions: read-out: DIZ
# Escherichia coli [16] = assay: Antibacterial activity against Escherichia coli at 25 ug/ml after 24 hrs by agar well diffusion method; conditions: read-out: DIZ
# Aspergillus niger [17] = assay: Antifungal activity against Aspergillus niger at 75 ug/ml after 48 hrs by agar well diffusion method; conditions: read-out: DIZ
# Staphylococcus aureus [18] = assay: Antibacterial activity against Staphylococcus aureus incubated for overnight by microdilution method
# Klebsiella pneumoniae [19] = assay: Antibacterial activity against Klebsiella pneumoniae at 100 ug/ml after 24 hrs by agar well diffusion method; conditions: read-out: DIZ
# Staphylococcus aureus [20] = assay: Antibacterial activity against methicillin resistant Staphylococcus aureus MRSA090 at 25 ug/ml after 24 hrs by agar well diffusion method; conditions: MRSA090, 24 h, read-out: DIZ
# Staphylococcus aureus [21] = assay: Antibacterial activity against Staphylococcus aureus at 75 ug/ml after 24 hrs by agar well diffusion method; conditions: read-out: DIZ
# Aspergillus niger [22] = assay: Antifungal activity against Aspergillus niger at 25 ug/ml after 48 hrs by agar well diffusion method; conditions: read-out: DIZ
# Fusarium oxysporum [23] = assay: Antifungal activity against Fusarium oxysporum at 50 ug/ml after 48 hrs by agar well diffusion method; conditions: read-out: DIZ
# Klebsiella pneumoniae [24] = assay: Antibacterial activity against Klebsiella pneumoniae at 50 ug/ml after 24 hrs by agar well diffusion method; conditions: read-out: DIZ
# Staphylococcus aureus [25] = assay: Antibacterial activity against Staphylococcus aureus at 50 ug/ml after 24 hrs by agar well diffusion method; conditions: read-out: DIZ
# Staphylococcus aureus [26] = assay: Antibacterial activity against Staphylococcus aureus at 100 ug/ml after 24 hrs by agar well diffusion method; conditions: read-out: DIZ
# Fusarium oxysporum [27] = assay: Antifungal activity against Fusarium oxysporum at 75 ug/ml after 48 hrs by agar well diffusion method; conditions: read-out: DIZ
# Klebsiella pneumoniae [28] = assay: Antibacterial activity against Klebsiella pneumoniae incubated for overnight by microdilution method
# Bacillus subtilis [29] = assay: Antibacterial activity against Bacillus subtilis at 75 ug/ml after 24 hrs by agar well diffusion method; conditions: read-out: DIZ
# Klebsiella pneumoniae [30] = assay: Antibacterial activity against Klebsiella pneumoniae at 75 ug/ml after 24 hrs by agar well diffusion method; conditions: read-out: DIZ
# Escherichia coli [31] = assay: Antibacterial activity against Escherichia coli incubated for overnight by microdilution method
# Bacillus subtilis [32] = assay: Antibacterial activity against Bacillus subtilis at 100 ug/ml after 24 hrs by agar well diffusion method; conditions: read-out: DIZ
# Escherichia coli [33] = assay: Antibacterial activity against Escherichia coli at 75 ug/ml after 24 hrs by agar well diffusion method; conditions: read-out: DIZ
# Bacillus subtilis [34] = assay: Antibacterial activity against Bacillus subtilis at 50 ug/ml after 24 hrs by agar well diffusion method; conditions: read-out: DIZ
# Escherichia coli [35] = assay: Antibacterial activity against Escherichia coli at 100 ug/ml after 24 hrs by agar well diffusion method; conditions: read-out: DIZ
# Staphylococcus aureus [36] = assay: Antibacterial activity against methicillin resistant Staphylococcus aureus MRSA090 at 50 ug/ml after 24 hrs by agar well diffusion method; conditions: MRSA090, 24 h, read-out: DIZ
# Fusarium verticillioides [37] = assay: Antifungal activity against Fusarium moniliforme after 48 to 72 hrs by microdilution method
# Staphylococcus aureus [38] = assay: Antibacterial activity against methicillin resistant Staphylococcus aureus MRSA090 at 100 ug/ml after 24 hrs by agar well diffusion method; conditions: MRSA090, 24 h, read-out: DIZ
# Fusarium verticillioides [39] = assay: Antifungal activity against Fusarium moniliforme at 50 ug/ml after 48 hrs by agar well diffusion method; conditions: read-out: DIZ
# Fusarium verticillioides [40] = assay: Antifungal activity against Fusarium moniliforme at 100 ug/ml after 48 hrs by agar well diffusion method; conditions: read-out: DIZ
SMILES,zone of inhibition at 75 µg/mL (Fusarium verticillioides [1]),MIC (Staphylococcus aureus [2]),MIC (Aspergillus niger [3]),zone of inhibition at 75 µg/mL (Staphylococcus aureus [4]),MIC (Fusarium oxysporum [5]),zone of inhibition at 25 µg/mL (Klebsiella pneumoniae [6]),zone of inhibition at 50 µg/mL (Escherichia coli [7]),zone of inhibition at 50 µg/mL (Aspergillus niger [8]),zone of inhibition at 100 µg/mL (Aspergillus niger [9]),zone of inhibition at 25 µg/mL (Staphylococcus aureus [10]),MIC (Bacillus subtilis [11]),zone of inhibition at 25 µg/mL (Bacillus subtilis [12]),zone of inhibition at 25 µg/mL (Fusarium oxysporum [13]),zone of inhibition at 100 µg/mL (Fusarium oxysporum [14]),zone of inhibition at 25 µg/mL (Fusarium verticillioides [15]),zone of inhibition at 25 µg/mL (Escherichia coli [16]),zone of inhibition at 75 µg/mL (Aspergillus niger [17]),MIC (Staphylococcus aureus [18]),zone of inhibition at 100 µg/mL (Klebsiella pneumoniae [19]),zone of inhibition at 25 µg/mL (Staphylococcus aureus [20]),further results
Cc1cccc2nc(N/N=C/c3cc4ccccc4[nH]3)sc12,9 mm,22 µg/mL,25 µg/mL,27 mm,22 µg/mL,4 mm,24 mm,19 mm,30 mm,14 mm,25 µg/mL,10 mm,17 mm,36 mm,8 mm,17 mm,24 mm,24 µg/mL,24 mm,16 mm,zone of inhibition at 75 µg/mL (Staphylococcus aureus [21]): 24 mm; zone of inhibition at 25 µg/mL (Aspergillus niger [22]): 12 mm; zone of inhibition at 50 µg/mL (Fusarium oxysporum [23]): 24 mm; zone of inhibition at 50 µg/mL (Klebsiella pneumoniae [24]): 9 mm; zone of inhibition at 50 µg/mL (Staphylococcus aureus [25]): 18 mm; zone of inhibition at 100 µg/mL (Staphylococcus aureus [26]): 30 mm; zone of inhibition at 75 µg/mL (Fusarium oxysporum [27]): 31 mm; MIC (Klebsiella pneumoniae [28]): 25 µg/mL; zone of inhibition at 75 µg/mL (Bacillus subtilis [29]): 19 mm; zone of inhibition at 75 µg/mL (Klebsiella pneumoniae [30]): 18 mm; MIC (Escherichia coli [31]): 24 µg/mL; zone of inhibition at 100 µg/mL (Bacillus subtilis [32]): 21 mm; zone of inhibition at 75 µg/mL (Escherichia coli [33]): 30 mm; zone of inhibition at 50 µg/mL (Bacillus subtilis [34]): 14 mm; zone of inhibition at 100 µg/mL (Escherichia coli [35]): 33 mm; zone of inhibition at 50 µg/mL (Staphylococcus aureus [36]): 23 mm; MIC (Fusarium verticillioides [37]): 24 µg/mL; zone of inhibition at 100 µg/mL (Staphylococcus aureus [38]): 30 mm; zone of inhibition at 50 µg/mL (Fusarium verticillioides [39]): 14 mm; zone of inhibition at 100 µg/mL (Fusarium verticillioides [40]): 22 mm
Cc1cccc2nc(N/N=C/c3cccs3)sc12,12 mm,20 µg/mL,30 µg/mL,22 mm,23 µg/mL,7 mm,14 mm,15 mm,26 mm,12 mm,26 µg/mL,10 mm,21 mm,30 mm,7 mm,10 mm,21 mm,32 µg/mL,21 mm,13 mm,zone of inhibition at 75 µg/mL (Staphylococcus aureus [21]): 24 mm; zone of inhibition at 25 µg/mL (Aspergillus niger [22]): 11 mm; zone of inhibition at 50 µg/mL (Fusarium oxysporum [23]): 24 mm; zone of inhibition at 50 µg/mL (Klebsiella pneumoniae [24]): 11 mm; zone of inhibition at 50 µg/mL (Staphylococcus aureus [25]): 18 mm; zone of inhibition at 100 µg/mL (Staphylococcus aureus [26]): 28 mm; zone of inhibition at 75 µg/mL (Fusarium oxysporum [27]): 29 mm; MIC (Klebsiella pneumoniae [28]): 26 µg/mL; zone of inhibition at 75 µg/mL (Bacillus subtilis [29]): 21 mm; zone of inhibition at 75 µg/mL (Klebsiella pneumoniae [30]): 18 mm; MIC (Escherichia coli [31]): 35 µg/mL; zone of inhibition at 100 µg/mL (Bacillus subtilis [32]): 24 mm; zone of inhibition at 75 µg/mL (Escherichia coli [33]): 18 mm; zone of inhibition at 50 µg/mL (Bacillus subtilis [34]): 15 mm; zone of inhibition at 100 µg/mL (Escherichia coli [35]): 22 mm; zone of inhibition at 50 µg/mL (Staphylococcus aureus [36]): 16 mm; MIC (Fusarium verticillioides [37]): 28 µg/mL; zone of inhibition at 100 µg/mL (Staphylococcus aureus [38]): 28 mm; zone of inhibition at 50 µg/mL (Fusarium verticillioides [39]): 9 mm; zone of inhibition at 100 µg/mL (Fusarium verticillioides [40]): 15 mm
Cc1cccc2nc(N/N=C/c3cc(O)c(O)c(O)c3)sc12,26 mm,18 µg/mL,28 µg/mL,33 mm,22 µg/mL,17 mm,20 mm,14 mm,23 mm,17 mm,15 µg/mL,14 mm,15 mm,33 mm,10 mm,14 mm,20 mm,17 µg/mL,37 mm,20 mm,zone of inhibition at 75 µg/mL (Staphylococcus aureus [21]): 28 mm; zone of inhibition at 25 µg/mL (Aspergillus niger [22]): 10 mm; zone of inhibition at 50 µg/mL (Fusarium oxysporum [23]): 22 mm; zone of inhibition at 50 µg/mL (Klebsiella pneumoniae [24]): 23 mm; zone of inhibition at 50 µg/mL (Staphylococcus aureus [25]): 24 mm; zone of inhibition at 100 µg/mL (Staphylococcus aureus [26]): 31 mm; zone of inhibition at 75 µg/mL (Fusarium oxysporum [27]): 27 mm; MIC (Klebsiella pneumoniae [28]): 24 µg/mL; zone of inhibition at 75 µg/mL (Bacillus subtilis [29]): 27 mm; zone of inhibition at 75 µg/mL (Klebsiella pneumoniae [30]): 28 mm; MIC (Escherichia coli [31]): 19 µg/mL; zone of inhibition at 100 µg/mL (Bacillus subtilis [32]): 35 mm; zone of inhibition at 75 µg/mL (Escherichia coli [33]): 26 mm; zone of inhibition at 50 µg/mL (Bacillus subtilis [34]): 22 mm; zone of inhibition at 100 µg/mL (Escherichia coli [35]): 37 mm; zone of inhibition at 50 µg/mL (Staphylococcus aureus [36]): 26 mm; MIC (Fusarium verticillioides [37]): 25 µg/mL; zone of inhibition at 100 µg/mL (Staphylococcus aureus [38]): 37 mm; zone of inhibition at 50 µg/mL (Fusarium verticillioides [39]): 17 mm; zone of inhibition at 100 µg/mL (Fusarium verticillioides [40]): 34 mm
